Test results taken from PubChem BioAssay (NCI).
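Protocol summary: plate cells (96-well), add compound at 5 concentrations, incubate 48 h, interpolate endpoints linearly. TGI denotes the concentration required for complete inhibition of growth.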

Experiments:
Assay in all cases: growth of human tumour cells (NCI), 48 h
786-0 renal = test system: 786-0 renal
A498 renal = test system: A498 renal
A549 NSCLC = test system: A549 NSCLC
ACHN renal = test system: ACHN renal
BT-549 breast = test system: BT-549 breast
CAKI-1 renal = test system: CAKI-1 renal
CCRF-CEM leukemia = test system: CCRF-CEM leukemia
COLO 205 colon = test system: COLO 205 colon
DU-145 prostate = test system: DU-145 prostate
EKVX NSCLC = test system: EKVX NSCLC
HCC-2998 colon = test system: HCC-2998 colon
HCT-116 colon = test system: HCT-116 colon
HCT-15 colon = test system: HCT-15 colon
HL-60(TB) leukemia = test system: HL-60(TB) leukemia
HOP-62 NSCLC = test system: HOP-62 NSCLC
HOP-92 NSCLC = test system: HOP-92 NSCLC
HS 578T breast = test system: HS 578T breast
HT29 colon = test system: HT29 colon
IGROV1 ovarian = test system: IGROV1 ovarian
K-562 leukemia = test system: K-562 leukemia
KM12 colon = test system: KM12 colon
LOX IMVI melanoma = test system: LOX IMVI melanoma
M14 melanoma = test system: M14 melanoma
MCF7 breast = test system: MCF7 breast
MDA-MB-231 breast = test system: MDA-MB-231 breast
MDA-MB-435 = test system: MDA-MB-435
MDA-N = test system: MDA-N
MOLT-4 leukemia = test system: MOLT-4 leukemia
NCI-H226 lung = test system: NCI-H226 lung
NCI-H23 lung = test system: NCI-H23 lung
NCI-H460 lung = test system: NCI-H460 lung
NCI/ADR-RES ovarian = test system: NCI/ADR-RES ovarian
OVCAR-3 ovarian = test system: OVCAR-3 ovarian
OVCAR-4 ovarian = test system: OVCAR-4 ovarian
OVCAR-5 ovarian = test system: OVCAR-5 ovarian
OVCAR-8 ovarian = test system: OVCAR-8 ovarian
PC-3 prostate = test system: PC-3 prostate
RXF 393 renal = test system: RXF 393 renal
SF-268 CNS = test system: SF-268 CNS
SF-295 CNS = test system: SF-295 CNS
SF-539 CNS = test system: SF-539 CNS
SK-MEL-2 melanoma = test system: SK-MEL-2 melanoma
SK-MEL-28 melanoma = test system: SK-MEL-28 melanoma
SK-MEL-5 melanoma = test system: SK-MEL-5 melanoma
SK-OV-3 ovarian = test system: SK-OV-3 ovarian
SN12C renal = test system: SN12C renal
SNB-19 CNS = test system: SNB-19 CNS
SNB-75 CNS = test system: SNB-75 CNS
SR leukemia = test system: SR leukemia
SW-620 colon = test system: SW-620 colon
T-47D breast = test system: T-47D breast
TK-10 renal = test system: TK-10 renal
U251 CNS = test system: U251 CNS
UACC-257 melanoma = test system: UACC-257 melanoma
UACC-62 melanoma = test system: UACC-62 melanoma
UO-31 renal = test system: UO-31 renal
MALME-3M melanoma = test system: MALME-3M melanoma
NCI-H522 lung = test system: NCI-H522 lung
RPMI-8226 leukemia = test system: RPMI-8226 leukemia

For `Cn1c(=O)cc(NNc2ccc(Cl)c(Cl)c2)[nH]c1=O`, the TGI (786-0 renal) was 25.9 µM, the TGI (A498 renal) was > 100 µM and the TGI (A549 NSCLC) was 36 µM. It also gave a TGI (ACHN renal) of 19.9 µM, a TGI (BT-549 breast) of 29.9 µM and a TGI (CAKI-1 renal) of 27.3 µM. For the same compound, the TGI (CCRF-CEM leukemia) was 37.3 µM, the TGI (COLO 205 colon) was 35.8 µM and the TGI (DU-145 prostate) was > 100 µM. It also gave a TGI (EKVX NSCLC) of 24.2 µM, a TGI (HCC-2998 colon) of 16.6 µM and a TGI (HCT-116 colon) of 20.5 µM. The TGI (HCT-15 colon) was 18.5 µM, the TGI (HL-60(TB) leukemia) was 91 µM and the TGI (HOP-62 NSCLC) was 31.3 µM. The TGI (HOP-92 NSCLC) was 28.5 µM, the TGI (HS 578T breast) was 56 µM and the TGI (HT29 colon) was 40.9 µM. The TGI (IGROV1 ovarian) was 23.5 µM, the TGI (K-562 leukemia) was 23.1 µM and the TGI (KM12 colon) was 30.2 µM. For the same compound, the TGI (LOX IMVI melanoma) was 28.1 µM, the TGI (M14 melanoma) was 20.3 µM and the TGI (MCF7 breast) was 21.4 µM. The TGI (MDA-MB-231 breast) was 23.9 µM, the TGI (MDA-MB-435) was 14.1 µM and the TGI (MDA-N) was 23.3 µM. For the same compound, the TGI (MOLT-4 leukemia) was 58.2 µM, the TGI (NCI-H226 lung) was 55.9 µM and the TGI (NCI-H23 lung) was 90.7 µM. It also gave a TGI (NCI-H460 lung) of 20.3 µM, a TGI (NCI/ADR-RES ovarian) of 64.1 µM and a TGI (OVCAR-3 ovarian) of 28.8 µM. It also gave a TGI (OVCAR-4 ovarian) of 28.3 µM, a TGI (OVCAR-5 ovarian) of 31.5 µM and a TGI (OVCAR-8 ovarian) of 31 µM. For the same compound, the TGI (PC-3 prostate) was 25.4 µM, the TGI (RXF 393 renal) was 38.8 µM and the TGI (SF-268 CNS) was 75.9 µM. The TGI (SF-295 CNS) was 43.2 µM, the TGI (SF-539 CNS) was 39.7 µM and the TGI (SK-MEL-2 melanoma) was 33.6 µM. The TGI (SK-MEL-28 melanoma) was 25.1 µM, the TGI (SK-MEL-5 melanoma) was 19.3 µM and the TGI (SK-OV-3 ovarian) was > 100 µM. For the same compound, the TGI (SN12C renal) was 21.2 µM, the TGI (SNB-19 CNS) was > 100 µM and the TGI (SNB-75 CNS) was 48.4 µM. The TGI (SR leukemia) was > 100 µM, the TGI (SW-620 colon) was 21.1 µM and the TGI (T-47D breast) was 21.1 µM. The TGI (TK-10 renal) was 30.6 µM, the TGI (U251 CNS) was 24.8 µM and the TGI (UACC-257 melanoma) was 28.6 µM. For the same compound, the TGI (UACC-62 melanoma) was 16.8 µM and the TGI (UO-31 renal) was 24.4 µM.

For `Clc1ccc(/C(=C/c2ccccc2)Cn2ccnc2)cc1`, the TGI (786-0 renal) was > 100 µM, the TGI (A498 renal) was 77.7 µM and the TGI (A549 NSCLC) was > 100 µM. The TGI (ACHN renal) was > 100 µM, the TGI (BT-549 breast) was 96.2 µM and the TGI (CAKI-1 renal) was > 100 µM. The TGI (CCRF-CEM leukemia) was > 100 µM, the TGI (COLO 205 colon) was 38.5 µM and the TGI (DU-145 prostate) was > 100 µM. For the same compound, the TGI (EKVX NSCLC) was > 100 µM, the TGI (HCC-2998 colon) was > 100 µM and the TGI (HCT-116 colon) was > 100 µM. The TGI (HCT-15 colon) was > 100 µM, the TGI (HL-60(TB) leukemia) was 46.3 µM and the TGI (HOP-62 NSCLC) was > 100 µM. The TGI (HOP-92 NSCLC) was 67.2 µM, the TGI (HS 578T breast) was > 100 µM and the TGI (HT29 colon) was > 100 µM. The TGI (IGROV1 ovarian) was > 100 µM, the TGI (K-562 leukemia) was > 100 µM and the TGI (KM12 colon) was > 100 µM. For the same compound, the TGI (LOX IMVI melanoma) was 91.1 µM, the TGI (M14 melanoma) was 65.6 µM and the TGI (MALME-3M melanoma) was > 100 µM. The TGI (MCF7 breast) was > 100 µM, the TGI (MDA-MB-231 breast) was > 100 µM and the TGI (MDA-MB-435) was 67.7 µM. For the same compound, the TGI (MDA-N) was 46.6 µM, the TGI (MOLT-4 leukemia) was > 100 µM and the TGI (NCI-H226 lung) was > 100 µM. The TGI (NCI-H23 lung) was > 100 µM, the TGI (NCI-H460 lung) was > 100 µM and the TGI (NCI-H522 lung) was 57.6 µM. The TGI (NCI/ADR-RES ovarian) was 66.6 µM, the TGI (OVCAR-4 ovarian) was > 100 µM and the TGI (OVCAR-5 ovarian) was > 100 µM. For the same compound, the TGI (OVCAR-8 ovarian) was > 100 µM, the TGI (PC-3 prostate) was 94 µM and the TGI (RPMI-8226 leukemia) was 73.6 µM. The TGI (RXF 393 renal) was 50.7 µM, the TGI (SF-268 CNS) was > 100 µM and the TGI (SF-295 CNS) was > 100 µM. For the same compound, the TGI (SF-539 CNS) was 80.9 µM, the TGI (SK-MEL-2 melanoma) was 40.8 µM and the TGI (SK-MEL-28 melanoma) was > 100 µM. For the same compound, the TGI (SK-MEL-5 melanoma) was 36.4 µM, the TGI (SK-OV-3 ovarian) was > 100 µM and the TGI (SN12C renal) was > 100 µM. For the same compound, the TGI (SNB-19 CNS) was > 100 µM, the TGI (SNB-75 CNS) was > 100 µM and the TGI (SR leukemia) was 78.4 µM. For the same compound, the TGI (SW-620 colon) was > 100 µM, the TGI (T-47D breast) was > 100 µM and the TGI (TK-10 renal) was > 100 µM. The TGI (U251 CNS) was > 100 µM, the TGI (UACC-257 melanoma) was > 100 µM and the TGI (UACC-62 melanoma) was > 100 µM. The TGI (UO-31 renal) was > 100 µM.

`COc1ccc2c(c1OC)C(=O)N1C2=Cc2c(cc3c(c2OC)OCO3)CC1N(C)C` (stereo unspecified) was tested, and the TGI (786-0 renal) was > 100 µM, the TGI (A498 renal) was > 100 µM and the TGI (A549 NSCLC) was > 100 µM. For the same compound, the TGI (ACHN renal) was > 100 µM, the TGI (BT-549 breast) was > 100 µM and the TGI (CAKI-1 renal) was > 100 µM. The TGI (CCRF-CEM leukemia) was > 100 µM, the TGI (COLO 205 colon) was > 100 µM and the TGI (DU-145 prostate) was > 100 µM. For the same compound, the TGI (EKVX NSCLC) was > 100 µM, the TGI (HCC-2998 colon) was > 100 µM and the TGI (HCT-116 colon) was > 100 µM. The TGI (HCT-15 colon) was > 100 µM, the TGI (HL-60(TB) leukemia) was 80.1 µM and the TGI (HOP-62 NSCLC) was > 100 µM. The TGI (HOP-92 NSCLC) was > 100 µM, the TGI (HS 578T breast) was > 100 µM and the TGI (IGROV1 ovarian) was > 100 µM. For the same compound, the TGI (K-562 leukemia) was > 100 µM, the TGI (KM12 colon) was > 100 µM and the TGI (M14 melanoma) was > 100 µM. The TGI (MALME-3M melanoma) was > 100 µM, the TGI (MCF7 breast) was > 100 µM and the TGI (MDA-MB-231 breast) was > 100 µM. For the same compound, the TGI (MDA-MB-435) was > 100 µM, the TGI (MDA-N) was > 100 µM and the TGI (MOLT-4 leukemia) was > 100 µM. For the same compound, the TGI (NCI-H226 lung) was > 100 µM, the TGI (NCI-H23 lung) was > 100 µM and the TGI (NCI-H460 lung) was > 100 µM. For the same compound, the TGI (NCI-H522 lung) was > 100 µM, the TGI (NCI/ADR-RES ovarian) was > 100 µM and the TGI (OVCAR-3 ovarian) was > 100 µM. The TGI (OVCAR-4 ovarian) was > 100 µM, the TGI (OVCAR-5 ovarian) was > 100 µM and the TGI (OVCAR-8 ovarian) was > 100 µM. The TGI (PC-3 prostate) was > 100 µM, the TGI (RPMI-8226 leukemia) was 99.6 µM and the TGI (RXF 393 renal) was > 100 µM. The TGI (SF-268 CNS) was > 100 µM, the TGI (SF-295 CNS) was > 100 µM and the TGI (SF-539 CNS) was > 100 µM. The TGI (SK-MEL-2 melanoma) was > 100 µM, the TGI (SK-MEL-28 melanoma) was > 100 µM and the TGI (SK-MEL-5 melanoma) was > 100 µM. For the same compound, the TGI (SK-OV-3 ovarian) was > 100 µM, the TGI (SN12C renal) was > 100 µM and the TGI (SNB-19 CNS) was > 100 µM. The TGI (SNB-75 CNS) was > 100 µM, the TGI (SR leukemia) was > 100 µM and the TGI (SW-620 colon) was > 100 µM. For the same compound, the TGI (T-47D breast) was 74.4 µM, the TGI (TK-10 renal) was > 100 µM and the TGI (U251 CNS) was > 100 µM. The TGI (UACC-257 melanoma) was > 100 µM, the TGI (UACC-62 melanoma) was > 100 µM and the TGI (UO-31 renal) was > 100 µM.
